# In patent US11628174B1, “Pharmaceutical compositions and methods for treating insomnia” (priority 2022, dated 2023):
# Legend:
# [1] = test system: insomnia; test: Clinical case reports: treatment of patients with insomnia; type: in vivo, human
# [2] = test system: allergic rhinitis; test: Clinical case report: allergic rhinitis in a patient with insomnia; type: in vivo, human; settings: Example 1; ebastine 20 mg once a day, about 3 months
# [3] = test system: anti-IgE-induced release of prostaglandin D2 (PGD2) and leukotrienes C4/D4; release of cytokines; settings: background statement, cited from earlier work
# [4] = Clinical case reports: tolerability and side effects in patients with insomnia
# Procedure: A patient had insomnia for more than 2 months before they were provided with medications.
# A patient had insomnia for more than 3 months. […] After that, they were treated with the combination of ebastine (10 mg) and alprazolam (0.4 mg) daily.
# [5] = test system: REM sleep; settings: background statement; cited from earlier work
smiles,measurement,setting,value
"CC(C)(C)c1ccc(C(=O)CCCN2CCC(OC(c3ccccc3)c3ccccc3)CC2)cc1 [ebastine, 4-diphenylmethoxy-1-[3-(4-tert-butylbenzoyl)-propyl] piperidine]",insomnia (difficulty of falling to asleep) improvement,"[1]; Example 1, person, ebastine 20 mg once a day, about 3 months",no improvement
same,allergic rhinitis improvement,[2],only improved marginally
same,anti-IgE-induced release of prostaglandin D2 (PGD2) and leukotrienes C4/D4 (LTC4/D4),[3],significantly inhibits
same,"release of cytokines, including GM-CSF, tumour necrosis factor-a and interleukin-8",[3],inhibited
CN1CCN(C(=O)O[C@H]2c3nccnc3C(=O)N2c2ccc(Cl)cn2)CC1 [eszopiclone],tolerability (side effects of headache and dizziness),"[4]; Example 3, eszopiclone 1 mg daily for 2 weeks",could not tolerate the side effects of headache and dizziness
same,tolerability (adverse reaction of headache),"[4]; Example 4, person, eszopiclone 1 mg daily for one week",could not tolerate its adverse reaction of headache
"Cc1nnc2n1-c1ccc(Cl)cc1C(c1ccccc1)=NC2 [alprazolam, 8-chloro-1-methyl-6-phenyl-4H-s-triazolo[4,3-a] [1,4]benzodiazepine]","chronic insomnia along with depression, improvement","[1]; Example 2, person, alprazolam 0.8 mg twice daily, 2 months",no improvement
same,REM latency,[5],increases
same,length of REM periods and frequency of REM burst activities,[5],significantly decreases
Cc1ccc(-c2nc3ccc(C)cn3c2CC(=O)N(C)C)cc1 [zolpidem],tolerability (side effects of headache and dizziness),"[4]; Example 3, person, zolpidem 10 mg daily for 1 month",could not tolerate the side effects of headache and dizziness
CC(C)(C(=O)O)c1ccc(C(=O)CCCN2CCC(OC(c3ccccc3)c3ccccc3)CC2)cc1 [carebastine],release of PGD2,[3]; metabolite of ebastine,inhibits
